# Laboratory results: patent publication EP1181934A1, “INHIBITORS FOR OPTIC HYPOFUNCTION CAUSED BY OPTIC NERVE CELL INJURY INDUCED BY FACTORS OTHER THAN OPTIC CIRCULATORY DISORDER” (Senju Pharmaceutical Co., Ltd., priority 1999, dated 2000)
# Experiments:
# [1] = test system: ischemic retinal neurocyte disorder; details: calcium antagonists; experiment models such as high ocular pressure rat models and central retinal artery and vein ligation models; cited from earlier work
# retinal ganglion cells [2] = test: central retinal artery and vein ligation model (ischemia/re-perfusion), retinal ganglion cell count; type: in vivo; details: male SD rats; hemostasis 55 minutes; 10 µg/kg via the tail vein twice (15 min before hemostasis and immediately after declamping); day 7 from release from ischemia; vs ischemic re-perfusion group, P<0.027 (Fig. 1, n=6)
# Protocol: Effect of the inventive compound on an ophthalmic nerve cell disorder in rats was tested using a central retinal artery and vein ligation model, which is a model for examining increase in a calcium amount in an optic nerve cell.
# Male SD rats (body weight 150 g) were grouped into a normal group, ischemic re-perfusion group and inventive compound administration group. The ischemic re-perfusion group and the inventive compound administration group were anesthetized with pentobarbital 50 mg/kg, and the central retinal artery and vein were ligated with an arterial aneurysm clip for hemostasis for 55 minutes. At 7 days from declamping, eyeballs were removed and fixed with 4% formaldehyde to prepare a tissue sample. After embedding in paraffin according to a conventional method, a thin slice (2 µm thick) was prepared by horizontal section vertical to a surface of the retina including the optic disc, and stained with hematoxylin-eosin. The number of retinal ganglion cells per a 0.25 mm retina vertical section at a certain distance (1-2 mm) from the optic disc was counted under an optical microscope. As regards the normal group, the number of retinal ganglion cells was counted in the same manner only with exposure of the central retinal artery and vein and without hemostasis. […]
# Significance was detected by the Student's t-Test.
# retinal ganglion cells [3] = test: cell death induction by increased intracellular calcium amount (kainic acid) in isolated retinal ganglion cells, MTT; type: cell-based; details: retinal ganglion cells of 8-day-old rats, 5 mM calcium chloride, pH 6.0, 1 h pre-incubation with compound, then 200 µM kainic acid, vs cell death induction group, P<0.01 (Fig. 2)
# Protocol: The retina was obtained from ten 8-day-old rats and treated with papain to give a cell suspension. Using a non-coat dish (TERUMO) and a dish (CORNING) coated with Thy-1.1 antibody (American Type Culture Collection, […]), retinal ganglion cells alone were isolated from the whole cells of the retina. The retinal ganglion cells on the dish were trypsinized and recovered. Then the recovered retinal ganglion cells were plated on a 96 well plate coated with poly-D-lysine and laminin at a concentration of 5000 cells/well/100 μl. The isolated retinal ganglion cells were divided for the normal group, cell death induction group and inventive compound administration group. As the cultures of the cell death induction group and inventive compound administration group, calcium chloride was added to Neurobasal medium (GIBCO) at a final concentration of 5 mM to adjust its pH to 6.0 and used. As the additives to the culture, 40 ng/ml BDNF (Pepro Tech), 40 ng/ml CNTF (Sigma), 5 μM Forskolin (Sigma), 1 mM glutamine (Wako), 50x B27 supplement (GIBCO) and Pen-strep (GIBCO) were added. For the inventive compound administration group, the inventive compound was added simultaneously with the plating of the cells and pre-incubated at 37°C for 1 h. After 1 h, kainic acid having a final concentration of 200 μM was added and the mixture was incubated at 37°C to induce cell death. […]
SMILES,inhibition of ischemic retinal neurocyte disorder [1],number of residual retinal ganglion cells in 0.25 mm of vertical retinal cross section (retinal ganglion cells [2]),viability (%) relative to that of a normal group (retinal ganglion cell count) (retinal ganglion cells [3])
Fc1ccc(C(c2ccc(F)cc2)N2CCN(C/C=C/c3ccccc3)CC2)cc1 [flunarizine],inhibited ischemic retinal neurocyte disorder,,
"C=CCN1CCN(CC(C)(C)COC(=O)C2=C(C)NC(C)=C(C(=O)OC)C2c2cccc([N+](=O)[O-])c2)CC1.Cl.Cl (stereo not drawn) [inventive compound, 3-(4-allyl-1-piperazinyl)-2,2-dimethylpropyl methyl 2,6-dimethyl-4-(m-nitrophenyl)-1,4-dihydropyridine-3,5-dicarboxylate dihydrochloride]",,significantly inhibited decrease in the retinal ganglion cell count,significantly inhibited decrease in the retinal ganglion cell count
